In patent US9949479B2 (priority 2015, dated 2018):
Converted amounts (≈) assume the structure as drawn. Where two headings read alike, the source gives them in different places.

Assays:
wheat scab [1] = format: in vivo, Fusarium spp.
powdery mildew = format: in vivo; conditions: dose as in E145
[2] = format: in vivo, wheat; conditions: dose as in E145
[3] = format: in vivo, wheat; conditions: Serial 29: Carbendazim 50 g a.i. (control agent)
Fusarium graminearum = assay: microbe, parasite or virus in culture; format: cell-based; conditions: sensitive strains, Fusarium graminearum (both types of fusaria)
Fusarium asiaticum = assay: microbe, parasite or virus in culture; format: cell-based
leaf blight = format: in vivo; conditions: dose as in E145
[4] = format: in vivo, wheat
wheat scab [5] = format: in vivo, Fusarium spp.; conditions: Serial 29: Carbendazim 50 g a.i. (control agent)
rust = format: in vivo; conditions: dose as in E145
wheat scab [6] = format: in vivo, Fusarium spp.; conditions: sprayed twice; g ai. agent/mu, Jinggangmycin+Metconazole by row: r16 1+15; r17 3+10; r18 5+5; r19 5+10; r20 5+15; r21 10+3; r22 10+10; r23 10+15; r24 50+3; r25 50+10; r26 50+15; r27 100+5; r28 100+10; Jinggangmycin alone r29 100; r30 50; r31 10; r32 5; r33 3; r34 1; Metconazole alone r35 15; r36 10; r37 5; r38 3; r39 Carbendazim 40
[7] = test system: DON toxin synthesis capability of thalli; parameters: species or system Fusarium spp.; conditions: in vivo
[8] = parameters: species or system wheat; conditions: in vivo

Row | Compound | Disease Index Prevention Effect % Actual Prevention Effect (wheat scab [1]; sprayed twice, g ai. agent/mu, Jinggangmycin+Metconazole by row: r12 0.5+25, r13 1+20, r14 5+5, r15 5+10, r16 5+15, r17 10+3, r18 10+5, r19 10+10, r20 10+15, r21 50+3, r22 50+5, r23 50+10, r24 50+15, r25 100+3, r26 100+5, r27 100+10, r28 100+15, r29 150+3, Jinggangmycin alone r30 0.5, r31 1, r32 5, r33 10, r34 50, r35 100, r36 150, Metconazole alone r37 3, r38 5, r39 10, r40 15, r41 20, r42 25, r4) [%] | prevention effect on head blight (wheat scab [1]; used for treatment alone) [%] | Disease Index Prevention Effect % Powdery Mildew (powdery mildew) [%] | Grain Toxin Content [2] | DON Reduction Percentage (%) ([2]; vs control) | Grain Toxin Content (mg of DON/Kg of grain) [3] | Rate of Decrease in Toxin Content in Grains (%) [3] [%] | ED50 (Fusarium graminearum) [µg/mL] | ED50 (Fusarium asiaticum) [µg/mL] | Disease Index Prevention Effect % Leaf Blight (leaf blight) [%] | Grain Toxin Content ([4]; dose by row as in E139) | decrease of toxin contamination level in comparison with the blank control ([4]; used for treatment alone) [%] | toxin contamination level of grains ([4]; used for treatment alone) | DON Contamination Reduction Rate % ([4]; vs blank control, dose by row as in E139) [%] | Disease Index Prevention Effect % Head Blight (wheat scab [5]) [%] | Disease Index Prevention Effect % Rust (rust) [%] | Disease Index Prevention Effect % Head Blight (wheat scab [6]) [%] | DON Synthesis Capability [7] | Thousand Kernel Weight [8] [g] | ED50 (Fusarium asiaticum; sensitive strains, Fusarium asiaticum (both types of fusaria)) [µg/mL]
1 | COC(=O)Nc1nc2ccccc2[nH]1 [Carbendazim, carbendazim] | 67.5 | 67.5 | 52.6 | 5.67 μg of toxin/g of kernels | 55.0 | 4.35 mg of DON/Kg of grain | 32.7 | 0.45 (≈ 2.35 µM) | 0.45 (≈ 2.35 µM) | 48.5 | 4.4 μg of toxin/g of kernels | 58.5 | 4.4 mg/kg of grains | 58.5 | 49.04 | 61.2 | 38.6 | 28.94 | 41.6 | –
2 | CCOC(=O)C(C#N)=C(N)c1ccccc1 [phenamacril] | – | – | – | – | – | – | – | 0.165 (≈ 0.763 µM) | – | – | – | – | – | – | – | – | – | – | – | 0.165 (≈ 0.763 µM)
